This passage reports Emax and EC1.5 results from US20120108585A1, “BENZOXAZOLES, BENZTHIAZOLES AND RELATED ANALOGS AS SIRTUIN MODULATORS” (Sirtris Pharmaceuticals, Inc., priority 2008, published 2012).

In this assay the target is T1, SIRT1 (Homo sapiens, UniProt Q96EB6).
T1 sequence (Q96EB6 1-747): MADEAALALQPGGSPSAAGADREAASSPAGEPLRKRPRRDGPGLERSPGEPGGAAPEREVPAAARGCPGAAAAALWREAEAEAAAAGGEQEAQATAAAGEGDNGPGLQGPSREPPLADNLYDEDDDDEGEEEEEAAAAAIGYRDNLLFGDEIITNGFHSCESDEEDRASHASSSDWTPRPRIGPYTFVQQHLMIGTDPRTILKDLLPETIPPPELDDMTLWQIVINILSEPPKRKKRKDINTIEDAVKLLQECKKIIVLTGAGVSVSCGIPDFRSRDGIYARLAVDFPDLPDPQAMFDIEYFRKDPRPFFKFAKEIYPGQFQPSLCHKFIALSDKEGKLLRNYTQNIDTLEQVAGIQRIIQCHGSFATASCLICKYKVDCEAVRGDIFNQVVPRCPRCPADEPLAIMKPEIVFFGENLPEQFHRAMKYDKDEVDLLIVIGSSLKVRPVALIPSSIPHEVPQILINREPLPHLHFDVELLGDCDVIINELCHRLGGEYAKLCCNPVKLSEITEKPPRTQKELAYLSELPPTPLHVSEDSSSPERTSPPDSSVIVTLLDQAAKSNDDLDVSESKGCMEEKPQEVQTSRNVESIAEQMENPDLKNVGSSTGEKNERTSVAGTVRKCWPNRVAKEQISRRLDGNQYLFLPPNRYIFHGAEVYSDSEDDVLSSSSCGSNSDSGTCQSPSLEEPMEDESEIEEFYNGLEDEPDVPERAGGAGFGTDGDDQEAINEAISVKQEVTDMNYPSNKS
Nature of the assay: mass spectrometry based assay to identify modulators of SIRT1 activity (deacetylation of p53-based acetylated peptide). In kind it is biochemical. The settings on record: SIRT1 activation, 10 nM SIRT1, 0.5 μM peptide substrate, 120 μM βNAD+, 25 minutes at 25° C.; for Emax: 25 min, read-out: % Fold Act. (percent maximum fold activation). The source says: A mass spectrometry based assay was used to identify modulators of SIRT1 activity. The mass spectrometry based assay utilizes a peptide having 20 amino acid residues as follows: Ac-EE-K(biotin)-GQSTSSHSK(Ac)NleSTEG-K(5TMR)-EE-NH2 (SEQ ID NO: 1) wherein K(Ac) is an acetylated lysine residue and Nle is a norleucine. The peptide is labeled with the fluorophore 5TMR (excitation 540 nm/emission 580 nm) at the C-terminus. The sequence of the peptide substrate is based on p53 with several modifications. In addition, the methionine residue naturally present in the sequence was replaced with the norleucine because the methionine may be susceptible to oxidation during synthesis and purification.
The mass spectrometry assay is conducted as follows: 0.5 μM peptide substrate and 120 μM βNAD^+ is incubated with 10 nM SIRT1 for 25 minutes at 25° C. in a reaction buffer (50 mM Tris-acetate pH 8, 137 mM NaCl, 2.7 mM KCl, 1 mM MgCl2, 5 mM DTT, 0.05% BSA). Test compounds may be added to the reaction as described above. The SirT1 gene is cloned into a T7-promoter containing vector and transformed into BL21(DE3). After the 25 minute incubation with SIRT1, 10 μL of 10% formic acid is added to stop the reaction. Reactions are sealed and frozen for later mass spec analysis. Determination of the mass of the substrate peptide allows for precise determination of the degree of acetylation (i.e. starting material) as compared to deacetylated peptide (product).
A control for inhibition of sirtuin activity is conducted by adding 1 μL of 500 mM nicotinamide as a negative control at the start of the reaction (e.g., permits determination of maximum sirtuin inhibition). A control for activation of sirtuin activity is conducted using 10 nM of sirtuin protein, with 1 μL of DMSO in place of compound, to determine the amount of deacetylation of the substrate at a given timepoint within the linear range of the assay. This timepoint is the same as that used for test compounds and, within the linear range, the endpoint represents a change in velocity.
For the above assay, SIRT1 protein was expressed and purified as follows. The SirT1 gene was cloned into a T7-promoter containing vector and transformed into BL21(DE3). The protein was expressed by induction with 1 mM IPTG as an N-terminal His-tag fusion protein at 18° C. overnight and harvested at 30,000×g. Cells were lysed with lysozyme in lysis buffer (50 mM Tris-HCl, 2 mM Tris[2-carboxyethyl]phosphine (TCEP), 10 μM ZnCl2, 200 mM NaCl) and further treated with sonication for 10 min for complete lysis. The protein was purified over a Ni-NTA column (Amersham) and fractions containing pure protein were pooled, concentrated and run over a sizing column (Sephadex S200 26/60 global). The peak containing soluble protein was collected and run on an Ion-exchange column (MonoQ). Gradient elution (200 mM-500 mM NaCl) yielded pure protein. This protein was concentrated and dialyzed against dialysis buffer (20 mM Tris-HCl, 2 mM TCEP) overnight. The protein was aliquoted and frozen at −80° C. until further use.
Sirtuin modulating compounds that activated SIRT1 were identified using the assay described above and are shown below in Table 1. The EC1-5 values for the activating compounds are represented by A (EC1-5<1.0 uM), B (EC1-5 1-25 uM), C (EC1-5>25 uM). The percent maximum fold activation is represented by A (Fold activation>150%) or B (Fold Activation<150%).

Bounds are passed on as bounds.

Take `O=C(Nc1nccs1)c1ccnc2sc(-c3cccc(C(F)(F)F)c3)nc12` [Compound 109]: the Emax was under 150% and the EC1.5 result is “C (EC1-5>25 uM)”.
Taken in the same sequence, the figures for `O=C(Nc1cccc2oc(-c3ccccc3)nc12)c1cnccn1` [Compound 101] were under 150% and “C (EC1-5>25 uM)”.
On the same counts, the results for `O=C(Nc1nccs1)c1cccc2oc(-c3ccccc3OC(F)(F)F)nc12` [Compound 141] are over 150% and “B (EC1-5 1-25 uM)”.
On the same counts, the results for `O=C(Nc1cccc(CN2CCOCC2)n1)c1cccc2nc(-c3ccccc3OC(F)(F)F)oc12` [Compound 120] are over 150% and “A (EC1-5<1.0 uM)”.
Turning to `O=C(Nc1nc(CN2CCOCC2)cs1)c1cccc2nc(-c3ccc(F)cc3C(F)(F)F)oc12` [Compound 132], the Emax was over 150% and the EC1.5 result was “B (EC1-5 1-25 uM)”.
Taken in the same sequence, the figures for `O=C(Nc1nccs1)c1cccc2nc(-c3ccccc3C(F)(F)F)oc12` [Compound 121] were over 150% and “B (EC1-5 1-25 uM)”.
For the molecule `O=C(Nc1nc(CN2CCOCC2)cs1)c1cccc2oc(-c3cc(F)ccc3C(F)(F)F)nc12` [Compound 149], the Emax is over 150% and the EC1.5 result was “A (EC1-5<1.0 uM)”.
On the same counts, the results for `O=C(Nc1ccccn1)c1cccc2nc(-c3ccccc3OC(F)(F)F)oc12` [Compound 118] are over 150% and “B (EC1-5 1-25 uM)”.
On the same counts, the results for `O=C(Nc1cccc(CN2CCOCC2)n1)c1cccc2nc(-c3cc(F)ccc3C(F)(F)F)oc12` [Compound 136] are over 150% and “B (EC1-5 1-25 uM)”.
On the same counts, the results for `O=C(Nc1nccs1)c1cccc2oc(-c3ccc(F)cc3C(F)(F)F)nc12` [Compound 143] are under 150% and “B (EC1-5 1-25 uM)”.
Take `O=C(Nc1ccccn1)c1cccc2oc(-c3ccccc3OC(F)(F)F)nc12` [Compound 142]: the Emax was over 150% and the EC1.5 entry is on record as “B (EC1-5 1-25 uM)”.
On the same counts, the results for `O=C(Nc1cccc(CN2CCOCC2)n1)c1cccc2nc(-c3ccccc3C(F)(F)F)oc12` [Compound 124] are over 150% and “A (EC1-5<1.0 uM)”.
On the same counts, the results for `O=C(Nc1cccc(N2CCCC2)n1)c1cccc2sc(-c3cccc(C(F)(F)F)c3)nc12` [Compound 153] are over 150% and “B (EC1-5 1-25 uM)”.
Taken in the same sequence, the figures for `O=C(Nc1ccccn1)c1cccc2sc(-c3cccc(N4CCOCC4)c3)nc12` [Compound 126] were under 150% and “C (EC1-5>25 uM)”.
As for `O=C(Nc1ccccn1)c1cccc2nc(-c3cccc(C(F)(F)F)c3)oc12` [Compound 107], the Emax was under 150% and the EC1.5 result is “C (EC1-5>25 uM)”.
Taken in the same sequence, the figures for `O=C(Nc1ccccn1)c1cccc2oc(-c3ccc(F)cc3C(F)(F)F)nc12` [Compound 144] were under 150% and “B (EC1-5 1-25 uM)”.
On to `O=C(Nc1ccccn1)c1ccnc2sc(-c3cccc(C(F)(F)F)c3)nc12` [Compound 110], for which the Emax is under 150% and the EC1.5 result is listed as “C (EC1-5>25 uM)”.
With `O=C(Nc1cccc(CN2CCOCC2)n1)c1cccc2oc(-c3ccccc3C(F)(F)F)nc12` [Compound 140], the Emax is over 150% and the EC1.5 result is “A (EC1-5<1.0 uM)”.
In the case of `O=C(Nc1ccccn1)c1cccc2sc(-c3cccnc3)nc12` [Compound 129], the Emax is under 150% and the EC1.5 entry was “C (EC1-5>25 uM)”.
In the case of `O=C(Nc1cccc(CN2CCOCC2)n1)c1cccc2oc(-c3ccc(F)cc3C(F)(F)F)nc12` [Compound 146], the Emax is over 150% and the EC1.5 entry is “A (EC1-5<1.0 uM)”.
On to `O=C(Nc1cccc(N2CCOCC2)n1)c1cccc2sc(-c3cccc(C(F)(F)F)c3)nc12` [Compound 151], for which the Emax was under 150% and the EC1.5 result is given as “A (EC1-5<1.0 uM)”.
For `O=C(Nc1nc(CN2CCOCC2)cs1)c1cccc2nc(-c3cc(F)ccc3C(F)(F)F)oc12` [Compound 135], the Emax was over 150% and the EC1.5 entry is recorded as “B (EC1-5 1-25 uM)”.
On the same counts, the results for `O=C(Nc1cccnc1)c1cccc2sc(-c3cccc(N4CCOCC4)c3)nc12` [Compound 127] are under 150% and “C (EC1-5>25 uM)”.
Consider `O=C(Nc1cccc(CN2CCOCC2)n1)c1cccc2oc(-c3cc(F)ccc3C(F)(F)F)nc12` [Compound 150], for which the Emax is over 150% and the EC1.5 entry is given as “A (EC1-5<1.0 uM)”.
`O=C(Nc1cccc2oc(-c3ccccc3)nc12)c1cscn1` [Compound 100]: the Emax is under 150% and the EC1.5 result is recorded as “C (EC1-5>25 uM)”.
On the same counts, the results for `O=C(Nc1ccccn1)c1cccc2oc(-c3cc(F)ccc3C(F)(F)F)nc12` [Compound 148] are under 150% and “C (EC1-5>25 uM)”.
As to `O=C(Nc1nccs1)c1cccc2nc(-c3ccccc3OC(F)(F)F)oc12` [Compound 117], the Emax is under 150% and the EC1.5 result was “B (EC1-5 1-25 uM)”.
Taken in the same sequence, the figures for `O=C(Nc1cccc2oc(-c3cccc(C(F)(F)F)c3)nc12)c1cscn1` [Compound 102] were under 150% and “C (EC1-5>25 uM)”.
Regarding `O=C(Nc1ccccn1)c1cccc2nc(-c3ccccc3C(F)(F)F)oc12` [Compound 122], the Emax was over 150% and the EC1.5 entry is “B (EC1-5 1-25 uM)”.
Taken in the same sequence, the figures for `O=C(Nc1cccnc1)c1cccc2sc(-c3cccc(C(F)(F)F)c3)nc12` [Compound 113] were under 150% and “C (EC1-5>25 uM)”.
Taken in the same sequence, the figures for `O=C(Nc1nccs1)c1cccc2sc(-c3cccc(N4CCOCC4)c3)nc12` [Compound 125] were under 150% and “C (EC1-5>25 uM)”.
Take `O=C(Nc1nccs1)c1cccc2sc(-c3cccc(C(F)(F)F)c3)nc12` [Compound 111]: the Emax was under 150% and the EC1.5 entry is “C (EC1-5>25 uM)”.
Taken in the same sequence, the figures for `O=C(Nc1nc(CN2CCOCC2)cs1)c1cccc2oc(-c3ccc(F)cc3C(F)(F)F)nc12` [Compound 145] were over 150% and “B (EC1-5 1-25 uM)”.
On to `O=C(Nc1nc(CN2CCOCC2)cs1)c1cccc2nc(-c3ccccc3C(F)(F)F)oc12` [Compound 123], for which the Emax is over 150% and the EC1.5 result is reported as “B (EC1-5 1-25 uM)”.
Taken in the same sequence, the figures for `O=C(Nc1nccs1)c1cccc2nc(-c3ccc(F)cc3C(F)(F)F)oc12` [Compound 130] were under 150% and “B (EC1-5 1-25 uM)”.
